Experimental findings from patent US6287813A, “Antibiotic-based gene regulation system” (Cistronics Cell Technology GmbH, priority 1999, dated 2001) are described below.

The target of series [1] is T1, PIT/PPIR system (Streptomyces coelicolor, UniProt Q9ADN3).
T1 construct: pMF156/pTWIN in CHO cells, PPIR-SEAP or GFP reporter
T1 sequence (Q9ADN3 1-252): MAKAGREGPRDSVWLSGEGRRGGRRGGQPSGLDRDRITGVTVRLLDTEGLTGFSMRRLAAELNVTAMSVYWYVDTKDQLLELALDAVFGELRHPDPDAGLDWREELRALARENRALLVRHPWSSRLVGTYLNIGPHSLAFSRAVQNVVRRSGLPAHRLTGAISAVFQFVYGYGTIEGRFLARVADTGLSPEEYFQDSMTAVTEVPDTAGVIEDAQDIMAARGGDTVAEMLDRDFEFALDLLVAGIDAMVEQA
As to the kind of experiment: SEAP reporter assay, CHO-TWIN clones transfected with pMF172 (PPIR-SEAP). It counts as cell-based. The note with it: for activity at 2 µg/mL / activity at 10 µg/mL: 48 h, CHO-TWIN1108 + pMF172, crossregulation, read-out: SEAP Production (%); for activity at 10 µg/mL: 10 μg/ml. The text has this:
(§1) pTWIN contains both PIT and tTA in a PSV40 -driven dicistronic configuration. For construction of pTWIN, PIT was first transferred from pMF156 as an EcoRI/HindIII fragment to the corresponding sites of pSBC-1 (EcoRI/HindIII; resulting in pMF167) before the PIT expression unit could be fused to the tTA expression unit contained on pSBC2-tTA (Fussenegger et al., 1997, supra) via SspI/NotI sites. Thus, pTWIN contains the dicistronic PSV40 -PIT-IRES-tTA-pA expression cassette.
(§2) Chinese hamster ovary cells (CHO-K1, ATCC: CCL 61), Baby hamster kidney cells (BHK-21, ATCC: CRL-8544), and HeLa cells (ATCC: CRL-7923) as well as stable cell lines CHO-PIT1, CHO-PIT2, CHO-TWIN195, CHO-TWIN1108 and CHO-PIT1-SEAP were cultured as described before (Fussenegger et al., 1998, Nat. Biotechnol. 16,468-472) in the presence of appropriate antibiotics: G418 400 μg/ml; zeocin 100 μg/ml. Optimized CaPO4 protocols were used for high efficiency transient transfection of all cell lines (id). Transient transfected cells were routinely analyzed after 48 h for GFP or SEAP expression using fluorescence microscopy and p-nitrophenolphosphate-based light absorbance timecourse, respectively, as described before (Fussenegger et al., 1998, Nat. Biotechnol. 16, 468-472; Berger et al., 1988, Gene 66, 1-10 b). For construction of stable CHO-PIT and CHO-TWIN cell lines, CHO-K1 was cotransfected either with pMF156 or pTWIN1 and pSV2neo carrying the G418 resistance gene. CHO-PIT1-SEAP was constructed by cotransfection of pMF172 and pZeoSV2 (Invitrogen). For assessment of dose-response characteristics of PPIR -regulated gene expression, CHO-PIT1-SEAP were cultured at cell densities of 150,000/ml for 48 at various PI concentrations. The mixed populations were cloned using FACS-mediated single-cell-sorting (FACStar^Plus; Beckton Dickinson). Gel retardation assay were performed as described (Salah-Bey et al., 1995, supra) using Pip purified from an overproducing strain of E. coli. Pip (0.02 pmol) was titrated with a range of antibiotic concentrations in a reaction volume of 20 μl. Protein solutions were pre-incubated at room temperature for 15 min. in the absence or presence of PI or its derivative quinupristin in a buffer containing 10 mM Tris (pH 7.8), 10 mM MgCl2, 300 mM NaCl, 2 mM DTT and 10% glycerol. An EcoRI-HindII PPTR fragment (0.02 pmol) containing three Pip binding sites (radiolabelled using α-^32 P)dATP was added and incubated for 15 min. To minimize nonspecific protein binding and increase protein stability, 2 μg of poly dIdC and 20 μg BSA were included in the incubation mix. Protein-DNA complexes were separated on 5% polyacrylamide,TBE gels and visualized by autoradiography.
(§3) CHO-TWIN195 and CHO-TWIN1108 were transfected under identical conditions with the isogenic plasmids containing the SEAP gene under control of the tTA-activated promoter PhCMV*-1 (pMF111) or the PIT-activated promoter PPIR (pMF172). Transfected cells were grown for 48 h in the presence or absence of either antibiotic prior to assay of SEAP activity.
(§4) Table 6: Comparison of the regulation performance of streptogramin- (PI and virginiamycin; VIR) and tetracycline-based gene regulation systems. The two cell clones CHO-TWIN195 and CHO-TWIN1108 containing both pristinamycin- and tetracycline-dependent transactivators were transfected with either the streptogramin-responsive or the TET-responsive SEAP reporter plasmids pMF172 (PPIR -SEAP) and pMF111 (PhCMV*-1 -SEAP), respectively, and the relative SEAP production was assessed. SEAP production values are normalized by SEAP activities under the antibiotic-free, active promoter conditions as follows: pMF172 in CHO-TWIN195:1.7 mU/ml; in CHO-TWIN1108 : 1.8 mU/ml. pMF111 in CHO-TWIN195 : 18.6 mU/ml; in CHO-TWIN1108 : 19.2 mU/ml.
(§5) Table 7: Compatibility of the streptogramin- and tetracycline-based gene regulation systems. Crossregulation of pristinamycin (PI) and the tetracyclines doxycycline (DOX) and tetracycline (TET). […]

For series [2], the target named is T2, TET-responsive system (tTA/PhCMV*-1) (Escherichia coli, UniProt P04483).
T2 construct: expressed in transfected cells; host or cells: CHO-K1 clones CHO-TWIN195 and CHO-TWIN1108 (pTWIN1)
T2 sequence (P04483 whole entry, added parts left off): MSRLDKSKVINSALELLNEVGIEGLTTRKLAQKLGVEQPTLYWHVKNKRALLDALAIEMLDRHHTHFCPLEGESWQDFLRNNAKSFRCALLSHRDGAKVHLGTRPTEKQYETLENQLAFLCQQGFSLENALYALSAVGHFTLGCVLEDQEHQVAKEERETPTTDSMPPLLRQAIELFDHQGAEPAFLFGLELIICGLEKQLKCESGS
As to the kind of experiment: SEAP reporter assay, CHO-TWIN clones transfected with pMF111 (PhCMV*-1-SEAP). In kind it is cell-based. The note with it: for SEAP Production (%): 48 h, no inducer = 100.
Text: as §1, §2, §3, §4, §5

For series [3], the target named is T1, PIT/PPIR system. As to the kind of experiment: SEAP reporter assay, CHO-K1 cotransfected with pMF156 (PIT) and pMF172 (PPIR-SEAP). In kind it is cell-based. Here is the method: PIT, the fusion protein of Pip and the VP16 C-terminal transactivation domain of Herpes simplex (Triezenberg et al., 1988, Genes Dev. 2, 718-729) was constructed by amplifying the S. coelicolor Pip from pGemT::Epip4 with oligos:
as §2
Five different sources of pristinamycin were used: The two therapeutic forms Pyostacin™ and Synercid™, pristinamycin discs, and the single compounds pristinamycin I (PI) and pristinamycin II (PII). Pyostacin™ pills (500 mg) were ground in a mortar and solubilized in DMSO or water at a stock concentration of 50 mg/ml. Synercid™ (RP 59500; Lot Nr. CB06253) was provided by Aventis in injection-ready vials containing 500 mg lyophilized antibiotic which was reconstituted in 5 ml of 5% glucose solution and frozen at -20° C. Individual pristinamycin compounds PI and PII (identical to virginiamycin M1 (VM1); Sigma ref. V2753) were solubilized in DMSO at a concentration of 50 mg/ml and kept at -20° C. Antibiotic discs containing 15 μg pristinamycin or virginiamycin (bioMerieux, ref. 54552; bioMerieux, ref. 54612) were soaked in 1 ml cell culture medium at 4i C for up to 24 h. […] The concentration of individual streptogramin components was calculated based on their fixed 70:30 ratio (w/w; PII/VM1 /dalfopristin: PI/VS1 /quinupristin). […]

The target in series [4] is T3, Pip/PPTR (Streptomyces coelicolor, UniProt Q9ADN3).
T3 construct: gel retardation with ptr promoter DNA (PPTR) of S. pristinaespiralis
T3 sequence (Q9ADN3 1-252): T1 sequence (Q9ADN3 1-252)
As to the kind of experiment: Gel retardation assay of Pip/PPTR interaction. In kind it is binding. The note with it: Pip 0.2 pmol titrated with 50 pmol to 0.01 pmol antibiotic. The text has this: FIG. 1: Gel retardation assay showing Pip/PPTR interaction. PPTR of S. pristinaespiralis contains 3 dyad symmetrical binding sites (lane A; PPTR in the absence of Pip) all of which are saturated at relatively large amounts of purified Pip (0.4 pmol; […]) resulting in a single shifted band. Smaller amounts of Pip (0.02 pmol) presented an intermediate situation in which all possible permutations of site occupancy are represented in three distinct retarded bands (lane C). Pip (0.2 pmol lanes D-M) was titrated with a range of PI from 50 pmol to 0.01 pmol (lanes D-H; D: 50 pmol; E: 10 pmol; F: 1 pmol; G: 0.1 pmol; H: 0.01 pmol). […]
Chinese hamster ovary cells (CHO-K1, ATCC: CCL 61), Baby hamster kidney cells (BHK-21, ATCC: CRL-8544), and HeLa cells (ATCC: CRL-7923) as well as stable cell lines CHO-PIT1, CHO-PIT2, CHO-TWIN195, CHO-TWIN1108 and CHO-PIT1-SEAP were cultured as described before (Fussenegger et al., 1998, Nat. Biotechnol. 16,468-472) in the presence of appropriate antibiotics: G418 400 μg/ml; zeocin 100 μg/ml. […] Transient transfected cells were routinely analyzed after 48 h for GFP or SEAP expression using fluorescence microscopy and p-nitrophenolphosphate-based light absorbance timecourse, respectively, as described before (Fussenegger et al., 1998, Nat. Biotechnol. 16, 468-472; Berger et al., 1988, Gene 66, 1-10 b). […]

Consider `C[C@H]1c2cccc(O)c2C(O)=C2C(=O)[C@]3(O)C(O)=C(C(N)=O)C(=O)[C@@H](N(C)C)[C@@H]3[C@@H](O)[C@@H]21` [DOX, doxycycline], for which the activity at 2 µg/mL in series [1] (2 μg/ml) was determined as 77 ± 6.9%. Further, the activity at 10 µg/mL in series [1] was found to be 50.5 ± 7.9%.

For `CN(C)[C@@H]1C(=O)C(C(N)=O)=C(O)[C@@]2(O)C(=O)C3=C(O)c4c(O)cccc4[C@@](C)(O)[C@H]3C[C@@H]12` [TET, tetracycline], in series [1] (2 μg/ml, read-out: Repressive effect on the PIT/PPIR system), the inhibition at 2 µg/mL is 17%. The activity at 2 µg/mL in series [1] (2 μg/ml) amounted to 87.7 ± 1.76%. Besides, in series [1], the activity at 10 µg/mL came to 57.5 ± 5%. Besides, in series [2] (CHO-TWIN195 + pMF111), the “Induction factor (IF; ratio of maximal expression level to antibiotic-repressed expression level)” value is on record as 12 and the “SEAP Production (%)” value was determined as 8.57 ± 0.37%. The “Induction factor (fold downregulation of SEAP)” value in series [2] (CHO-TWIN1108 + pMF111, 2880 min) stood at 13 fold. Also, the “SEAP Production (%)” value in series [2] (CHO-TWIN1108 + pMF111) stood at 7.56 ± 0.01%.

In the case of `CC1=CC(O)CC(=O)Cc2nc(co2)C(=O)N2CCC=C2C(=O)OC(C(C)C)C(C)C=CC(=O)NCC=C1` (stereo not drawn) [PII, pristinamycin II], the “Downregulation of PIT/PPIR-mediated SEAP expression” value in series [3] (CHO-K1, 2 μg/ml) was “did not display any significant repression activity”. Also, in series [3] (CHO-K1, inducer 2 μg/ml, assayed 48 hr later, no inducer = 100, read-out: SEAP Production (%)), the activity at 2 µg/mL is 96.3 ± 3.2%.

Turning to `CC[C@H]1NC(=O)[C@@H](NC(=O)c2ncccc2O)[C@@H](C)OC(=O)[C@H](c2ccccc2)NC(=O)[C@@H]2CC(=O)[C@H](CS[C@@H]3CN4CCC3CC4)CN2C(=O)[C@H](Cc2ccc(N(C)C)cc2)N(C)C(=O)[C@@H]2CCCN2C1=O` (stereo in doubt) [quinupristin], the “Release of Pip from PPTR” value in series [4] is given as “only partial release”.
